Molecular target: T1, Mitogen-activated protein kinase kinase kinase 5 (Homo sapiens, UniProt Q99683)
T1 sequence (Q99683 whole entry): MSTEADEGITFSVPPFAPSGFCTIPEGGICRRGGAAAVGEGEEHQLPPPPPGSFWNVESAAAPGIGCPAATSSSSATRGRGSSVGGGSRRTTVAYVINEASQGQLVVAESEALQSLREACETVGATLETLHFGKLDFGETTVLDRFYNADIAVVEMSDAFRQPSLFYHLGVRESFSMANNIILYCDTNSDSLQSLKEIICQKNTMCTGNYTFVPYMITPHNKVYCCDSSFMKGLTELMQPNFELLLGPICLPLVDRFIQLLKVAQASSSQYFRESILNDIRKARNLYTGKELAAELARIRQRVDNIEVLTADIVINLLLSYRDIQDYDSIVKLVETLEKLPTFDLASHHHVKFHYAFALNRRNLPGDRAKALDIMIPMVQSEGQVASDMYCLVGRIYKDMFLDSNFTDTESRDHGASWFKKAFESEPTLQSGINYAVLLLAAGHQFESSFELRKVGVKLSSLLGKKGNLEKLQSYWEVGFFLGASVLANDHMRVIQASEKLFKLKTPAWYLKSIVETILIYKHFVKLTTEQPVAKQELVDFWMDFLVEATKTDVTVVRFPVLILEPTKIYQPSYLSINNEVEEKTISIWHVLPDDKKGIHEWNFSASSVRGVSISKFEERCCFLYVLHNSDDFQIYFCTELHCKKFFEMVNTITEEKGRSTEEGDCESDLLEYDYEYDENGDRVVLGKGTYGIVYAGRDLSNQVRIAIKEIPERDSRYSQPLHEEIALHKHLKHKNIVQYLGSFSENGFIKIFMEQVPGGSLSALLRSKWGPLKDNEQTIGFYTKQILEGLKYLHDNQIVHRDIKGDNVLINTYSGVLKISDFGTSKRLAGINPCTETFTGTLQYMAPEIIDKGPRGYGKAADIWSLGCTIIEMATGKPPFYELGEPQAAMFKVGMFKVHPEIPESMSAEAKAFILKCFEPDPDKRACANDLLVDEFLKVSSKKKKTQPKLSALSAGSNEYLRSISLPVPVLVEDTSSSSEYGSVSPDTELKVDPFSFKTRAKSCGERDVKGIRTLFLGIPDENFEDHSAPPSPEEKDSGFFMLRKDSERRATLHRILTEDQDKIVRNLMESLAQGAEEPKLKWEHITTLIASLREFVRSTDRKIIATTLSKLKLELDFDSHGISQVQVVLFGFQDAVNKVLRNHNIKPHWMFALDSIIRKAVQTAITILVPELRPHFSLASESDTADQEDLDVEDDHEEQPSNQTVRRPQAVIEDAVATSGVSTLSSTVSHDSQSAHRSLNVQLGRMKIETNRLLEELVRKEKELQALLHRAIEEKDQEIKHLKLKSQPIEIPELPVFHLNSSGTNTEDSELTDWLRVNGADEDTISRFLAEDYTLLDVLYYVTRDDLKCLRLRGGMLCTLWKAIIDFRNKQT
Assay: HTRF KinEASE Assay: ASK1 was purchased from Thermofisher (Catalogue #PV4011), ATP was purchased from Sigma (Catalogue #A7699), HTRF® KinEASE™ Assay System was obtained from Cisbio (Bedford, Mass.). ½ Area plate was purchased from Perkin Elmer (Catalogue ##6005560). HTRF® KinEASE™-STK is a generic method for measuring serine/threonine kinase activities using a time-resolved fluorescence resonance energy transfer (TR-FRET) immunoassay. The IC50 value for each compound was determined in the presence of compound (various concentration from 0 to 10 μM) and a fixed amount of ATP and peptide substrates. The test compound, 1 uM STK3 peptide substrate, and 5 nM of ASK1 kinase are incubated with kinase reaction buffer containing 50 mM HEPES pH 7.5, 0.01% BRIJ-35, 10 mM MgCl2, and 1 mM EGTA for 30 minutes. 100 uM ATP is added to start kinase reaction and incubated for 3 hours. The STK3-antibody labeled with Eu3+-Cryptate and 125 nM streptavidin-XL665 are mixed in a single addition with stop reagents provided by the Cisbio kit used to stop the kinase reaction. Fluorescence is detected using an Envision Multilabeled 2014 reader from PerkinElmer. The Fluorescence is measured at 615 nm (Cryptate) and 665 nm (XL665) and a ratio of 665 nm/615 nm is calculated for each well. The resulting TR-FRET is proportional to the phosphorylation level. Staurosporine was used as the positive control.

- IC50: > 1000 nM
Compound: Cc1cc(F)c(C(=O)Nc2cccc(-n3cnnc3)n2)cc1-n1cnc(C2CC2)c1
